Laboratory results published in patent publication US20120065126A1, “Pharmaceutical Compositions Containing Antifungal Peptides” (BASF SE, priority 2009, published 2012).

Legend:
Malassezia furfur = assay: Growth inhibition at equal concentrations by weight of P18, zinc pyrithione, climbazole, ketoconazole (CFU); format: cell-based
Protocol: The studies described hereinafter were conducted on the Malassezia furfur strain DSM 6170.
For this purpose, the procedure was as follows:
The growth test was effected as follows: a shake culture containing M472 Pityrosporum medium was inoculated with M. furfur and incubated with shaking at 30° C. and 200 rpm overnight.
A 96-well microtiter plate was filled with 100 μl per well of M472 Pityrosporum medium and inoculated with M. furfur suspension from the overnight culture. The M. furfur suspension was adjusted at the start of the experiment to an optical density, measured at 600 nm, of 0.02. The concentrates of the inhibitor solutions were 1 mM in DMSO for P18 peptide and 10 mM in DMSO for zinc pyrithione, ketoconazole and climbazole. The final DMSO concentration was kept the same in all experiments.
The following growth was compared by measuring the optical density: • M. furfur suspension and addition of the P18 solution with a final concentration of 50 μM (corresponds to 0.0115% (w/w)) • M. furfur suspension and addition of the zinc pyrithione (ZPT) solution with a final concentration of 362 μM (comparison to the mixture containing 50 μM P18 peptide) • M. furfur suspension and addition of the ketoconazole solution with a final concentration of 216 μM (comparison to the mixture containing 50 μM P18 peptide) • M. furfur suspension and addition of the climbazole solution with a final concentration of 390 μM (comparison to the mixture containing 50 μM P18 peptide)
The microtiter plate was incubated with shaking at 30° C.
[…] After incubation over the course of 6 days, the colonies on the plate were counted. The CFU was determined in order to rule out any influence of the biphasic medium, and also the growth form of M. furfur, on the optical density. The experiments were each conducted in double determination, at least in two independent experiments.

[1] = system: Staphylococcus epidermidis (DSM 1798); assay: Short-term effect (CFU); format: cell-based; settings: for Inhibition in words: up to 60 minutes
Protocol: For this purpose, the procedure was as follows.
TSBY growth medium: Ready-made TSB medium (Becton, Dickinson and Company, Sparks, USA); 17 g of pancreatin-degraded casein 3 g of pancreatin-degraded soya 2.5 g of dextrose 5 g of sodium chloride 2.5 g of dipotassium phosphate 3 g of yeast extract (Becton, Dickinson and Company, Sparks, USA) make up to 1 liter, set pH 7
The growth test was effected as follows: 5 ml of TSBY medium were inoculated with S. epidermidis and incubated at 37° C. and 200 rpm overnight.
1.5 ml reaction vessels were each filled with 1 ml of TSBY medium and inoculated with S. epidermidis suspension from the overnight culture. The S. epidermidis suspension was adjusted at the start of the experiment to an optical density, measured at 600 nm, of 0.1. The concentration of the peptide solution in water or ZPT solution (zinc pyrithione, >96%, Sigma Aldrich) dissolved in DMSO was 2% (w/w).
The following growth was compared: • S. epidermidis suspension and addition of P18 peptide with a final concentration in the 1.5 ml reaction vessel of 50 ppm after 5 minutes, 10 minutes, 20 minutes and 60 minutes • S. epidermidis suspension and addition of P18 peptide with a final concentration in the 1.5 ml reaction vessel of 100 ppm after 5 minutes, 10 minutes, 20 minutes and 60 minutes • S. epidermidis suspension and addition of P18 peptide with a final concentration in the 1.5 ml reaction vessel of 200 ppm after 5 minutes, 10 minutes, 20 minutes and 60 minutes • S. epidermidis suspension and addition of P18 peptide with a final concentration in the 1.5 ml reaction vessel of 500 ppm after 5 minutes, 10 minutes, 20 minutes and 60 minutes • S. epidermidis suspension and addition of P18 peptide with a final concentration in the 1.5 ml reaction vessel of 1000 ppm after 5 minutes, 10 minutes, 20 minutes and 60 minutes • S. epidermidis suspension and addition of ZPT with a final concentration in the 1.5 ml reaction vessel of 50 ppm after 5 minutes, 10 minutes, 20 minutes and 60 minutes • S. epidermidis suspension and addition of ZPT with a final concentration in the 1.5 ml reaction vessel of 100 ppm after 5 minutes, 10 minutes, 20 minutes and 60 minutes • S. epidermidis suspension and addition of ZPT with a final concentration in the 1.5 ml reaction vessel of 200 ppm after 5 minutes, 10 minutes, 20 minutes and 60 minutes • S. epidermidis suspension and addition of ZPT with a final concentration in the 1.5 ml reaction vessel of 500 ppm after 5 minutes, 10 minutes, 20 minutes and 60 minutes • S. epidermidis suspension and addition of ZPT with a final concentration in the 1.5 ml reaction vessel of 1000 ppm after 5 minutes, 10 minutes, 20 minutes and 60 minutes
The 1.5 ml reaction vessels were incubated at room temperature.
After the incubation times specified, the colony forming units (CFU) were determined by streaking 1 μl of each of the suspensions diluted in 20 μl of TSBY medium and, after incubation for 2 days, counting the colonies.

| Substance | Colony forming units after the incubation time specified ([1]; 50 ppm, 5 minutes) | Colony forming units after the incubation time specified ([1]; 50 ppm, 10 minutes) | Colony forming units after the incubation time specified ([1]; 50 ppm, 20 minutes) | Colony forming units after the incubation time specified ([1]; 50 ppm, 60 minutes) | Colony forming units after the incubation time specified ([1]; 100 ppm, 5 minutes) | Colony forming units after the incubation time specified ([1]; 100 ppm, 10 minutes) | Colony forming units after the incubation time specified ([1]; 100 ppm, 20 minutes) | Colony forming units after the incubation time specified ([1]; 100 ppm, 60 minutes) | Colony forming units after the incubation time specified ([1]; 200 ppm, 5 minutes) | Colony forming units after the incubation time specified ([1]; 200 ppm, 10 minutes) | Colony forming units after the incubation time specified ([1]; 200 ppm, 20 minutes) | Colony forming units after the incubation time specified ([1]; 200 ppm, 60 minutes) | Colony forming units after the incubation time specified ([1]; 500 ppm, 5 minutes) | Colony forming units after the incubation time specified ([1]; 500 ppm, 10 minutes) | Colony forming units after the incubation time specified ([1]; 500 ppm, 20 minutes) | Colony forming units after the incubation time specified ([1]; 500 ppm, 60 minutes) | Colony forming units after the incubation time specified ([1]; 1000 ppm, 5 minutes) | Colony forming units after the incubation time specified ([1]; 1000 ppm, 10 minutes) | Colony forming units after the incubation time specified ([1]; 1000 ppm, 20 minutes) | Colony forming units after the incubation time specified ([1]; 1000 ppm, 60 minutes) | other results |
| --- | --- | --- | --- | --- | --- | --- | --- | --- | --- | --- | --- | --- | --- | --- | --- | --- | --- | --- | --- | --- | --- |
| H-KWKLFKKIPKFLHLAKKF-NH2 [P18, H-KWKLFKKIPKFLHLAKKF-NH2] | 221 ± 5 CFU | 19 ± 3 CFU | 4.75 ± 0.4 CFU | 0.75 ± 0.4 CFU | 171 ± 219 CFU | 6.5 ± 4.2 CFU | 0.5 ± 0 CFU | 0 ± 0 CFU | 14 ± 18 CFU | 5.75 ± 4.6 CFU | 0.25 ± 0.4 CFU | 0 ± 0 CFU | 19 ± 22 CFU | 0.25 ± 0.4 CFU | 0.75 ± 1.1 CFU | 0 ± 0 CFU | 1.25 ± 0.4 CFU | 0 ± 0 CFU | 0 ± 0 CFU | 0 ± 0 CFU | Colony forming units (CFU) (Malassezia furfur; final conc. 50 μM (0.0115% (w/w)), 24 h): 1 ± 1 CFU; Colony forming units (CFU) (Malassezia furfur; final conc. 50 μM (0.0115% (w/w)), 40 h): 0 ± 0 CFU |
| zinc pyrithione [ZPT] | 2000 ± 0 CFU | 2000 ± 0 CFU | 1033 ± 1368 CFU | 522 ± 721 CFU | 2000 ± 0 CFU | 2000 ± 0 CFU | 1200 ± 1131 CFU | 707 ± 698 CFU | 2000 ± 0 CFU | 2000 ± 0 CFU | 2000 ± 0 CFU | 2000 ± 0 CFU | 2000 ± 0 CFU | 2000 ± 0 CFU | 2000 ± 0 CFU | 2000 ± 0 CFU | 2000 ± 0 CFU | 2000 ± 0 CFU | 2000 ± 0 CFU | 2000 ± 0 CFU | Colony forming units (CFU) (Malassezia furfur; final conc. 362 μM, 24 h): 60 ± 40 CFU; Colony forming units (CFU) (Malassezia furfur; final conc. 362 μM, 40 h): 26 ± 7 CFU; Inhibition in words ([1]; 50 ppm and 100 ppm): low inhibition; Inhibition in words ([1]; higher concentrations (200-1000 ppm)): no significant inhibition |
